Experimental data taken from patent publication EP4806891A1 (Kangbaida (Sichuan) Biotechnology Co., Ltd., priority 2023, dated 2025).

Molecular target: T1, HEK-Blue-hTLR9 cells (Homo sapiens, UniProt Q9NR96)
T1 construct: expressed in transfected cells; host or cells: HEK-Blue-hTLR9 cells (HEK293-derived reporter line)
T1 sequence (Q9NR96 26-1032): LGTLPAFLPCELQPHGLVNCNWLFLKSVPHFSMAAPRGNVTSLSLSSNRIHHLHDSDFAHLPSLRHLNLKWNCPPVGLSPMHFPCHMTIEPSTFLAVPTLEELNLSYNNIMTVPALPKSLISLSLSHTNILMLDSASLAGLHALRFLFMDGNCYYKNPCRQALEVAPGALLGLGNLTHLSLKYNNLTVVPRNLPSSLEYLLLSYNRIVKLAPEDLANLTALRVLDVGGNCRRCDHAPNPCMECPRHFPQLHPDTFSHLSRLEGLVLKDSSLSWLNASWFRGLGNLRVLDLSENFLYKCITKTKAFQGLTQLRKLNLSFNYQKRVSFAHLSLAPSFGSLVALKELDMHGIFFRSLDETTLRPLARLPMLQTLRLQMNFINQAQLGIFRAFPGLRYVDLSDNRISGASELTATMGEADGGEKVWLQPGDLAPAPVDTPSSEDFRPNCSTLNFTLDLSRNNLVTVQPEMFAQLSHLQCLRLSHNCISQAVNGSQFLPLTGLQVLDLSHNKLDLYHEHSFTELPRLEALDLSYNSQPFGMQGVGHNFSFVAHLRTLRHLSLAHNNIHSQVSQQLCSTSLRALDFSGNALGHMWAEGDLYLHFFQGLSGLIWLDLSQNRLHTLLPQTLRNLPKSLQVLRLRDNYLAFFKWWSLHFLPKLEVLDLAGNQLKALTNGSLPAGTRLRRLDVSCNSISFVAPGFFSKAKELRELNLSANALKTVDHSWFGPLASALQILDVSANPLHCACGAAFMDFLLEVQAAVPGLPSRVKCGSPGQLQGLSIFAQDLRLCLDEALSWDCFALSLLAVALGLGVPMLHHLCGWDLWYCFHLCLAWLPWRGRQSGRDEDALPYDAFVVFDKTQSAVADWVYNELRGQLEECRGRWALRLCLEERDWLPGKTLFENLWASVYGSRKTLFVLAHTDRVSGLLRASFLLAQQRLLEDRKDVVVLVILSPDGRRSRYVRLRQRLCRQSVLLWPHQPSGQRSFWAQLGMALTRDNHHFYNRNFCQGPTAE
Assay: HEK-Blue-hTLR9 cell inhibition assay
Type: cell-based
Details: ODN2006 1 µM, 16 h, OD 620 nm, read-out: TLR9 IC50
Procedure: HEK-Blue-hTLR7/8/9 cell inhibition assay
1. HEK-Blue-hTLR7/8 cells (1 × 10^4 cells/well) and HEK-Blue-hTLR9 cells (1.5 × 10^4 cells/well) were seeded in a 384-well cell culture plate, with a volume of 30 µL per well. The plate was incubated at 37°C in a 5% CO2 incubator for 4 h. 2. The compound was prepared with DMSO and diluted in DMEM medium to 10 concentrations (1:3 dilution), with final concentrations of 10000, 3333.3, 1111.1, 370.4, 123.5, 41.2, 13.7, 4.6, 1.5, and 0.5 nM; R848 was prepared with DMSO and diluted in DMEM medium, with final concentrations of 0.8 µM (HEK-Blue-hTLR7) and 3 µM (HEK-Blue-hTLR8); ODN2006 was prepared with endotoxin-free water and diluted in DMEM medium, with a final concentration of 1 µM. 3. Cells treated with DMSO were used as the blank control group, while cells treated solely with Resiquimod (R848) were used as the positive control group for HEK-Blue-hTLR7/8, and cells treated solely with ODN2006 were used as the positive control group for HEK-Blue-hTLR9. Cells treated with the test compound together with R848 or ODN2006 were used as the test group. Two parallel wells were set for each group and were placed at 37°C in a 5% CO2 incubator for incubation. 4. After being incubated for 4 h, the 384-well plate of HEK-Blue-hTLR7/8 was taken out from the incubator, and R848 alone or both R848 and the diluted compound were separately added into each well. The plate was placed at 37°C in a 5% CO2 incubator for incubation for 16 h; the 384-well plate of HEK-Blue-hTLR9 was taken out from the incubator, and ODN2006 alone or both ODN2006 and the diluted compound were added separately to each well. The plate was incubated at 37°C in a 5% CO2 incubator for 16 h. 5. After being incubated for 16 h, the 384-well plate was removed from the incubator and centrifuged at 1000 rpm for 1 minute. The optical density value of each well at 620 nm was measured using a multifunctional microplate reader. 6. The cell inhibition rate was calculated as (1-(OD620 test group-OD620 blank group)/(OD620 positive group-OD620 blank group))×100%, and the half maximal inhibitory concentration (IC50) was calculated through curve fitting. Table 1: Activity of the compounds of the present disclosure in HEK-Blue-hTLR7/8/9 cellular assays

For `CN1CCC(c2nnc([C@]34CN(c5ccc(C#N)c6ncccc56)C[C@@]3(C(F)(F)F)C4)o2)C(F)C1` (stereo partly drawn) [Compound 50, 5-((1S,5R)-1-(5-(3-fluoro-1-methylpiperidin-4-yl)-1,3,4-oxadiazol-2-yl)-5-(trifluoromethyl)-3-azabicyclo[3.1.0]hexan-3-yl)quinoline-8-carbonitrile], which IC50 is on record?
The IC50 was > 1000 nM.

With `CN(C)C12CCC(c3nnc([C@]45CN(c6ccc(C#N)c7ncccc67)C[C@@]4(C(F)(F)F)C5)o3)(CC1)CC2` [Compound 53, 5-((1S,5R)-1-(5-(4-(dimethylamino)bicyclo[2.2.2]octan-1-yl)-1,3,4-oxadiazol-2-yl)-5-(trifluoromethyl)-3-azabicyclo[3.1.0]hexan-3-yl)quinoline-8-carbonitrile] as the molecule, how does the IC50 read?
Its IC50 is > 1000 nM.

Which IC50 does the source give for `CN1CCC(n2cc([C@]34CN(c5ccc(C#N)c6ncccc56)C[C@@]3(C(F)(F)F)C4)nn2)CC1` [Compound 71, 5-((1S,5R)-1-(1-(1-methylpiperidin-4-yl)-1H-1,2,3-triazol-4-yl)-5-(trifluoromethyl)-3-azabicyclo[3.1.0]hexan-3-yl)quinoline-8-carbonitrile] here?
The IC50 was > 1000 nM.

For `CN1CC(c2nnc([C@]34CN(c5ccc(C#N)c6ncccc56)C[C@@]3(C(F)(F)F)C4)o2)C1` [Compound 39, 5-((1S,5R)-1-(5-(1-methylazetidin-3-yl)-1,3,4-oxadiazol-2-yl)-5-(trifluoromethyl)-3-azabicyclo[3.1.0]hexan-3-yl)quinoline-8-carbonitrile], which IC50 is on record?
The IC50 was > 1000 nM.

How did the IC50 turn out when `NC12CCC(c3nnc([C@]45CN(c6ccc(C(F)(F)F)c7ncccc67)C[C@@]4(C(F)(F)F)C5)o3)(CC1)CC2` [Compound 81, 4-(5-((1S,5R)-5-(trifluoromethyl)-3-(8-(trifluoromethyl)quinolin-5-yl)-3-azabicyclo[3.1.0]hexan-1-yl)-1,3,4-oxadiazol-2-yl)bicyclo[2.2.2]octan-1-amine] was run?
The IC50 was > 1000 nM.

With `COc1ccc(N2C[C@]3(c4nnc(C5CCN(C)CC5)o4)C[C@]3(C(F)(F)F)C2)c2cccnc12` [Compound 66, 2-((1S,5R)-3-(8-methoxyquinolin-5-yl)-5-(trifluoromethyl)-3-azabicyclo[3.1.0]hexan-1-yl)-5-(1-methylpiperidin-4-yl)-1,3,4-oxadiazole] as the molecule, how does the IC50 read?
The IC50 was > 1000 nM.

With `N#Cc1ccc(N2C[C@]3(c4nnc(C5(F)CNC5)o4)C[C@]3(C(F)(F)F)C2)c2cccnc12` [Compound 32, 5-((1S,5R)-1-(5-(3-Fluoroazetidin-3-yl)-1,3,4-oxadiazol-2-yl)-5-(trifluoromethyl)-3-azabicyclo[3.1.0]hexan-3-yl)quinoline-8-carbonitrile] as the molecule, how does the IC50 read?
Its IC50 is > 10000 nM.

`N#Cc1ccc(N2C[C@]3(c4nnc(C5CCNCC5)o4)C[C@]3(C(F)(F)F)C2)c2c(F)cnn12` [Compound 80, 3-fluoro-4-((1S,5R)-1-(5-(piperidin-4-yl)-1,3,4-oxadiazol-2-yl)-5-(trifluoromethyl)-3-azabicyclo[3.1.0]hexan-3-yl)pyrazolo[1,5-a]pyridine-7-carbonitrile] was tested. Which IC50 did it give?
Its IC50 is > 1000 nM.

Which IC50 does the source give for `N#Cc1ccc(N2C[C@]3(c4nnc(C5=CCNC5)o4)C[C@]3(C(F)(F)F)C2)c2cccnc12` [Compound 22, 5-((1S,5R)-1-(5-(2,5-dihydro-1H-pyrrol-3-yl)-1,3,4-oxadiazol-2-yl)-5-(trifluoromethyl)-3-azabicyclo[3.1.0]hexan-3-yl)quinoline-8-carbonitrile] here?
The IC50 was > 10000 nM.

Which IC50 does the source give for `Cn1c(CN2CCCC2)nnc1[C@]12CN(c3ccc(C#N)c4ncccc34)C[C@@]1(C(F)(F)F)C2` [Compound 44, 5-((1S,5R)-1-(4-methyl-5-(pyrrolidin-1-ylmethyl)-4H-1,2,4-triazol-3-yl)-5-(trifluoromethyl)-3-azabicyclo[3.1.0]hexan-3-yl)quinoline-8-carbonitrile] here?
The IC50 was > 10000 nM.

Which IC50 does the source give for `CN1CCC(c2nnc([C@]34CN(c5ccc(C#N)n6ncc(F)c56)C[C@@]3(C(F)(F)F)C4)o2)CC1` [Compound 57, 3-fluoro-4-((1S,5R)-1-(5-(1-methylpiperidin-4-yl)-1,3,4-oxadiazol-2-yl)-5-(trifluoromethyl)-3-azabicyclo[3.1.0]hexan-3-yl)pyrazolo[1,5-a]pyridine-7-carbonitrile] here?
Its IC50 is > 1000 nM.

How did the IC50 turn out when `N#Cc1ccc(N2C[C@]3(c4nnc(CN5CCCC5)o4)C[C@]3(C(F)(F)F)C2)c2cccnc12` [Compound 41, 5-((1S,5R)-1-(5-(Pyrrolidin-1-ylmethyl)-1,3,4-oxadiazol-2-yl)-5-(trifluoromethyl)-3-azabicyclo[3.1.0]hexan-3-yl)quinoline-8-carbonitrile] was run?
Its IC50 is > 10000 nM.

With `N#Cc1ccc(N2C[C@]3(c4nnc(C5CCNCC5F)o4)C[C@]3(C(F)(F)F)C2)c2cccnc12` (stereo partly shown) [Compound 33] as the molecule, how does the IC50 read?
The IC50 was > 1000 nM.

How did the IC50 turn out when `N#Cc1ccc(N2C[C@]3(c4nnc(C#CCN5CCOCC5)o4)C[C@]3(C(F)(F)F)C2)c2cccnc12` [Compound 24, 5-((1S,5R)-1-(5-(3-morpholinoprop-1-yn-1-yl)-1,3,4-oxadiazol-2-yl)-5-(trifluoromethyl)-3-azabicyclo[3.1.0]hexan-3-yl)quinoline-8-carbonitrile] was run?
The IC50 was > 10000 nM.

`N#Cc1ccc(N2C[C@]3(c4nnc(C5CC6(CNC6)C5)o4)C[C@]3(C(F)(F)F)C2)c2cccnc12` [Compound 18, 5-((1S,5R)-1-(5-(2-azaspiro[3.3]heptan-6-yl)-1,3,4-oxadiazol-2-yl)-5-(trifluoromethyl)-3-azabicyclo[3.1.0]hexan-3-yl)quinoline-8-carbonitrile] was tested. Which IC50 did it give?
Its IC50 is < 1000 nM.

With `N#Cc1ccc(N2C[C@]3(c4nnc(C5CNCC(F)C5)o4)C[C@]3(C(F)(F)F)C2)c2cccnc12` (stereo partly drawn) [Compound 45, 5-((1R,5S)-1-((difluoro-3-methyl)-12-fluoraneyl)-5-(5-(5-fluoropiperidin-3-yl)-1,3,4-oxadiazol-2-yl)-3-azabicyclo[3.1.0]hexan-3-yl)quinoline-8-carbonitrile] as the molecule, how does the IC50 read?
Its IC50 is > 10000 nM.

Which IC50 does the source give for `Cc1cc(N2CC3(c4nnc(C5CCN(C)CC5)o4)C[C@]3(C(F)(F)F)C2)c2cnn(C)c2n1` (stereo partly drawn) [Compound 2, 2-((5R)-3-(1,6-dimethyl-1H-pyrazolo[3,4-b]pyridin-4-yl)-5-(trifluoromethyl)-3-azabicyclo[3.1.0]hexan-1-yl)-5-(1-methylpiperidin-4-yl)-1,3,4-oxadiazole] here?
The IC50 was > 10000 nM.

For `CN1CCC(F)(c2nnc([C@]34CN(c5ccc(C#N)n6nccc56)C[C@@]3(C(F)(F)F)C4)o2)CC1` [Compound 90, 4-((1S,5R)-1-(5-(4-fluoro-1-methylpiperidin-4-yl)-1,3,4-oxadiazol-2-yl)-5-(trifluoromethyl)-3-azabicyclo[3.1.0]hexan-3-yl)pyrazolo[1,5-a]pyridine-7-carbonitrile], which IC50 is on record?
Its IC50 is > 1000 nM.

`CN1CCN(c2nnc([C@]34CN(c5ccc(C#N)c6ncccc56)C[C@@]3(C(F)(F)F)C4)o2)CC1` [Compound 1, 5-((1S,5R)-1-(5-(4-methylpiperazin-1-yl)-1,3,4-oxadiazol-2-yl)-5-(trifluoromethyl)-3-azabicyclo[3.1.0]hexan-3-yl)quinoline-8-carbonitrile] was tested. Which IC50 did it give?
Its IC50 is > 10000 nM.
